From ChEMBL document CHEMBL5661979, “Pharmacological inhibition of BMK1 suppresses tumor growth through promyelocytic leukemia protein” (Cancer Cell, 2010)
Activity calls are given as the source filed them. The calls are words filed in the database; no cut-off is given here.

Target: Mitogen-activated protein kinase; ERK1/ERK2 (Homo sapiens) (UniProt P27361+P28482)
Assay: Inhibition of ERK1/2 in human HeLa cells assessed as reduction in EGF-induced ERK1/2 phosphorylation level at T202/Y204 residue at 1 uM pre incubated for 1 hr followed by EGF stimulation and measured after 17 mins by Western blot analysis
Format: cell-based
Details: time 77.0 min

Chain of Mitogen-activated protein kinase; ERK1/ERK2 (Homo sapiens) (P27361 whole entry, looked up): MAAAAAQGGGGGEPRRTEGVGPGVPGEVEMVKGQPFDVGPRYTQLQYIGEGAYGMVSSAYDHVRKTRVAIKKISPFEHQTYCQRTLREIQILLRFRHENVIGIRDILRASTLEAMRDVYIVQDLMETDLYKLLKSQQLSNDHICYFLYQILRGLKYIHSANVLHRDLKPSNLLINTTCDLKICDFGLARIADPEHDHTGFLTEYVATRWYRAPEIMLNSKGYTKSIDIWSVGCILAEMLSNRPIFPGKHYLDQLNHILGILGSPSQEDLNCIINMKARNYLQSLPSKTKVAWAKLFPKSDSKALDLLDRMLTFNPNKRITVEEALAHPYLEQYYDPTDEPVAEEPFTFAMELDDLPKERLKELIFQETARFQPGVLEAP
Chain of Mitogen-activated protein kinase; ERK1/ERK2 (Homo sapiens) (P28482 whole entry, looked up): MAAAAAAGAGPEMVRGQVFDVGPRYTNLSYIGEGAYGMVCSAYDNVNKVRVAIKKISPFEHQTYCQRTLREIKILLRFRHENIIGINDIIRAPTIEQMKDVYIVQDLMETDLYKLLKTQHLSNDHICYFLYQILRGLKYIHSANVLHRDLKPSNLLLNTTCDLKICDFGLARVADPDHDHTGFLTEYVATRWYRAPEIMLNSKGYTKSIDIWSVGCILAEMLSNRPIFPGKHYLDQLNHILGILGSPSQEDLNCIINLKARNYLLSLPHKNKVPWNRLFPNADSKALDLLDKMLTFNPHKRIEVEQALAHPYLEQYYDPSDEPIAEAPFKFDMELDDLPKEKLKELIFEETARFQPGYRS

inhibition: Active
SMILES: O=C(NOCC1CC1)c1ccc(F)c(F)c1Nc1ccc(I)cc1Cl
